Measurements as given in ChEMBL document CHEMBL2151015, “Discovery of a potent, selective, and orally bioavailable acidic 11β-hydroxysteroid dehydrogenase type 1 (11β-HSD1) inhibitor: discovery of 2-[(3S)-1-[5-(cyclohexylcarbamoyl)-6-propylsulfanylpyridin-2-yl]-3-piperidyl]acetic acid (AZD4017)” (J Med Chem, 2012).
pIC50: −log10 of the molar value. Values after ≈ are worked out from the molar mass of the structure shown. Active and inactive are the calls of the source. No cut-off for these calls is given here.

Columns and labels:
[1] = Octanol-buffer partition coefficient, log D of the compound after 30 mins by shake flask method at pH 7.4; conditions: octanol/buffer
[2] = Fraction unbound in rat plasma after 18 to 19 hrs by equilibrium dialysis; type: ADME, cell-free
[3] = Aqueous solubility of the compound after 24 hrs by LC-UV analysis at pH 7.4; type: physicochemical; conditions: aqueous medium
[4] = Intrinsic clearance in rat hepatocytes assessed per 10^6 cells
[5] = Oral bioavailability in rat; type: ADME, organism-based; conditions: in vivo
[6] = Fraction unbound in mouse plasma after 18 to 19 hrs by equilibrium dialysis; type: ADME, cell-free
[7] = Fraction unbound in dog plasma after 18 to 19 hrs by equilibrium dialysis; type: ADME, cell-free, Canis lupus familiaris
[8] = Fraction unbound in human plasma after 18 to 19 hrs by equilibrium dialysis; type: ADME, cell-free
[9] = Apparent permeability from apical to basal side of MDCK cells at 10 uM; type: ADME, cell-based, Canis lupus familiaris; conditions: dog
[10] = Apparent permeability from basal to apical side of MDCK cells at 10 uM; type: ADME, cell-based, Canis lupus familiaris; conditions: dog
[11] = target: CYP1A2 (Homo sapiens, UniProt P05177); assay: Inhibition of CYP1A2 at 10 uM; type: ADME
[12] = target: CYP2C9 (Homo sapiens, UniProt P11712); assay: Inhibition of CYP2C9 at 10 uM; type: ADME
[13] = target: CYP2D6 (Homo sapiens, UniProt P10635); assay: Inhibition of CYP2D6 at 10 uM; type: ADME
[14] = target: CYP2C19 (Homo sapiens, UniProt P33261); assay: Inhibition of CYP2C19 at 10 uM; type: ADME
[15] = target: CYP3A4 (Homo sapiens, UniProt P08684); assay: Inhibition of CYP3A4 at 10 uM; type: ADME
[16] = Plasma clearance in mouse at 1 to 3 mg/kg; type: ADME, organism-based; set-up: dose 1-3 mg/kg
[17] = Volume of distribution at steady state in mouse at 1 to 3 mg/kg; type: ADME, organism-based; set-up: dose 1-3 mg/kg; conditions: in vivo, read-out: Vdss
[18] = Half life in mouse at 1 to 3 mg/kg, iv; type: ADME, organism-based; set-up: dose 1-3 mg/kg, route intravenous; conditions: in vivo
[19] = Half life in mouse at 1 to 3 mg/kg, po; type: ADME, organism-based; set-up: dose 1-3 mg/kg, route oral; conditions: in vivo
[20] = Oral bioavailability in mouse at 1 to 3 mg/kg; type: ADME, organism-based; conditions: in vivo
[21] = Plasma clearance in rat at 1 to 3 mg/kg; type: ADME, organism-based; set-up: dose 1-3 mg/kg
[22] = Volume of distribution at steady state in rat at 1 to 3 mg/kg; type: ADME, organism-based; set-up: dose 1-3 mg/kg; conditions: in vivo, read-out: Vdss
[23] = Half life in rat at 1 to 3 mg/kg, iv; type: ADME, organism-based; set-up: dose 1-3 mg/kg, route intravenous; conditions: in vivo
[24] = Half life in rat at 1 to 3 mg/kg, po; type: ADME, organism-based; set-up: dose 1-3 mg/kg, route oral; conditions: in vivo
[25] = Oral bioavailability in rat at 1 to 3 mg/kg; type: ADME, organism-based; conditions: in vivo
[26] = Plasma clearance in dog at 1 to 3 mg/kg; type: ADME, organism-based, Canis lupus familiaris; set-up: dose 1-3 mg/kg
[27] = Volume of distribution at steady state in dog at 1 to 3 mg/kg; type: ADME, organism-based, Canis lupus familiaris; set-up: dose 1-3 mg/kg; conditions: in vivo, read-out: Vdss
[28] = Half life in dog at 1 to 3 mg/kg, iv; type: ADME, organism-based, Canis lupus familiaris; set-up: dose 1-3 mg/kg, route intravenous; conditions: in vivo
[29] = Half life in dog at 1 to 3 mg/kg, po; type: ADME, organism-based, Canis lupus familiaris; set-up: dose 1-3 mg/kg, route oral; conditions: in vivo
[30] = Oral bioavailability in dog at 1 to 3 mg/kg; type: ADME, organism-based, Canis lupus familiaris; conditions: in vivo
[31] = tested on: Hepatocyte; assay: Metabolic stability in rat hepatocytes assessed as compound remaining; type: ADME, cell-based
[32] = tested on: Liver; assay: Drug uptake in rat liver assessed as covalent binding measured per mg protein at 40 uCi/kg, po at 2 hrs; type: ADME, organism-based; conditions: in vivo
[33] = tested on: Plasma; assay: Drug uptake in rat plasma assessed as covalent binding measured at 40 uCi/kg, po at 24 hrs; type: ADME, organism-based; conditions: in vivo
[34] = tested on: Liver; assay: Drug uptake in rat liver assessed as covalent binding measured per mg protein at 40 uCi/kg, po at 24 hrs; type: ADME, organism-based; conditions: in vivo
[35] = target: 11-beta-hydroxysteroid dehydrogenase type 2 (Homo sapiens, UniProt P80365); assay: Inhibition of recombinant 11betaHSD2 using cortisol as substrate after 40 mins by fluorescence spectrophotometry
[36] = target: 17-beta-hydroxysteroid dehydrogenase type 1 (Homo sapiens, UniProt P14061); assay: Inhibition of recombinant 17betaHSD1 using [3H]estrone as substrate after 20 mins by flow scintillation analysis
[37] = target: 17-beta-hydroxysteroid dehydrogenase type 3 (Homo sapiens, UniProt P37058); assay: Inhibition of recombinant 17betaHSD3 using [3H]androstenedione as substrate after 90 mins by flow scintillation analysis
[38] = target: Glucocorticoid receptor (Homo sapiens) (UniProt P04150); assay: Activity at glucocorticoid receptor
[39] = target: Mineralocorticoid receptor (Homo sapiens) (UniProt P08235); assay: Activity at mineralocorticoid receptor
[40] = tested on: Salmonella typhimurium; assay: Mutagenicity against Salmonella typhimurium by Ames test; type: toxicity, organism-based; conditions: salmonella enterica subsp. enterica serovar typhimurium
[41] = tested on: L5178Y; assay: Mutagenicity against mouse L5178Y cells by mouse lymphoma assay; type: toxicity, cell-based
[42] = species on record: Cavia porcellus; assay: Toxicity against guinea pig by monophasic action potential assay; type: organism-based; conditions: in vivo
[43] = Induction in cytochrome P450 in rat up to 1 month; type: ADME
[44] = target: Type-2 angiotensin II receptor (Homo sapiens) (UniProt P50052); assay: Activity at AT2 receptor
[45] = target: Gastrin/cholecystokinin type B receptor (Homo sapiens) (UniProt P32239); assay: Activity at CCK2 receptor
[46] = target: 11-beta-hydroxysteroid dehydrogenase 1 (Mus musculus, UniProt P50172); assay: Inhibition of N-terminal His6-tagged full length mouse 11betaHSD1 expressed in baculovirus infected cells using cortisone as substrate after 25 mins by HTRF assay
[47] = target: 11-beta-hydroxysteroid dehydrogenase 1 (Rattus norvegicus, UniProt P16232); assay: Inhibition of N-terminal His6-tagged full length rat 11betaHSD1 expressed in baculovirus infected cells using cortisone as substrate after 25 mins by HTRF assay
[48] = target: 11-beta-hydroxysteroid dehydrogenase type 1 (Canis lupus familiaris, UniProt Q5XX84); assay: Inhibition of N-terminal His6-tagged full length dog 11betaHSD1 expressed in baculovirus infected cells using cortisone as substrate after 25 mins by HTRF assay
[49] = Inhibition of N-terminal His6-tagged full length cynomolgus monkey 11betaHSD1 expressed in baculovirus infected cells using cortisone as substrate after 25 mins by HTRF assay; set-up: species or system Macaca fascicularis
[50] = tested on: Mus musculus; assay: Ex-vivo inhibition of 11betaHSD1 in C57Bl6J mouse epididymal adipose tissue using [3H]cortisone as substrate at 50 mg/kg, po after 1 hr by flow scintillation analysis; type: functional
[51] = tested on: Mus musculus; assay: Ex-vivo inhibition of 11betaHSD1 in C57Bl6J mouse epididymal adipose tissue using [3H]cortisone as substrate at 1500 mg/kg, po after 1 hr by flow scintillation analysis; type: functional
[52] = tested on: Mus musculus; assay: Ex-vivo inhibition of 11betaHSD1 in po dosed C57Bl6J mouse epididymal adipose tissue using [3H]cortisone as substrate after 1 hr by flow scintillation analysis; type: functional, organism-based
[53] = Metabolic stability in dog hepatocytes assessed as compound remaining; type: ADME, cell-based, Canis lupus familiaris, Hepatocyte
[54] = tested on: Hepatocyte; assay: Metabolic stability in human hepatocytes assessed as compound remaining; type: ADME, cell-based
[55] = in vivo; conditions: rat

Sequence of CYP2C9 (P11712 whole entry): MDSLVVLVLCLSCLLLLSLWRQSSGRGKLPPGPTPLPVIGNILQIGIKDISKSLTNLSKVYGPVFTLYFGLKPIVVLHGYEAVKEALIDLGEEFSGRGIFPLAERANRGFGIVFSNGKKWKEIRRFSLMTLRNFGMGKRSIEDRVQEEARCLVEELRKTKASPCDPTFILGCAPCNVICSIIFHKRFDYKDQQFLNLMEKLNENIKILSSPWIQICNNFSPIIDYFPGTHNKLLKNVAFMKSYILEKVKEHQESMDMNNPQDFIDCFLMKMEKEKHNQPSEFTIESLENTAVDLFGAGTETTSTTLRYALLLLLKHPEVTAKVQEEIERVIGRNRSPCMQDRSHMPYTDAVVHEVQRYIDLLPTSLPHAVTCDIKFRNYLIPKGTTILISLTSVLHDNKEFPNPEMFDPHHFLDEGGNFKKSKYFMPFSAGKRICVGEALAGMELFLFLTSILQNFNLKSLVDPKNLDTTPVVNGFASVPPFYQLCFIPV
Sequence of Gastrin/cholecystokinin type B receptor (Homo sapiens) (P32239 whole entry): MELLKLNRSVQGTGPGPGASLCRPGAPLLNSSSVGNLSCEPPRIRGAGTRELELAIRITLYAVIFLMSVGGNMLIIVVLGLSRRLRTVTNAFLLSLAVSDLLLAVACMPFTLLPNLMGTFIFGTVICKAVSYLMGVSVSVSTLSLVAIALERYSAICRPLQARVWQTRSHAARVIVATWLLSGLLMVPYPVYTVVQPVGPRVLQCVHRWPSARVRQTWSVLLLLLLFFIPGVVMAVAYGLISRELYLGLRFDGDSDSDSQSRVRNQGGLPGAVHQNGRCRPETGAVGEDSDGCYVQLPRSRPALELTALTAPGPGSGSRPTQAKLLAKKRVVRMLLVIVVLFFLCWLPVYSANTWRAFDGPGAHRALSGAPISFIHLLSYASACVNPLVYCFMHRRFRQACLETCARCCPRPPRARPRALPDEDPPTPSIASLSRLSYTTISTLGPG
Sequence of CYP2D6 (P10635 whole entry): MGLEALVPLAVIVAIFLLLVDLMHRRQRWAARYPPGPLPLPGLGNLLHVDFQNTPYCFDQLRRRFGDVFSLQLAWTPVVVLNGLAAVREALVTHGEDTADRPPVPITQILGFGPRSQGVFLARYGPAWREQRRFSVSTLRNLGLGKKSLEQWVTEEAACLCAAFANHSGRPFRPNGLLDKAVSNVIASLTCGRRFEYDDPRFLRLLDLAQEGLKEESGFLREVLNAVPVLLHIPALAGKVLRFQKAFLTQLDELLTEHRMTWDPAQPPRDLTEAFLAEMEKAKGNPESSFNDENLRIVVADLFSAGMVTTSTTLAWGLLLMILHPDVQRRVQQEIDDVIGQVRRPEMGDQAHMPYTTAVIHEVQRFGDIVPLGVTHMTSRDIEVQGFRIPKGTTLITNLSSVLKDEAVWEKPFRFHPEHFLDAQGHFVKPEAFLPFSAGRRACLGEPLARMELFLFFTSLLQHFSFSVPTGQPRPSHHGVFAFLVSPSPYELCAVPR
Sequence of CYP2C19 (P33261 whole entry): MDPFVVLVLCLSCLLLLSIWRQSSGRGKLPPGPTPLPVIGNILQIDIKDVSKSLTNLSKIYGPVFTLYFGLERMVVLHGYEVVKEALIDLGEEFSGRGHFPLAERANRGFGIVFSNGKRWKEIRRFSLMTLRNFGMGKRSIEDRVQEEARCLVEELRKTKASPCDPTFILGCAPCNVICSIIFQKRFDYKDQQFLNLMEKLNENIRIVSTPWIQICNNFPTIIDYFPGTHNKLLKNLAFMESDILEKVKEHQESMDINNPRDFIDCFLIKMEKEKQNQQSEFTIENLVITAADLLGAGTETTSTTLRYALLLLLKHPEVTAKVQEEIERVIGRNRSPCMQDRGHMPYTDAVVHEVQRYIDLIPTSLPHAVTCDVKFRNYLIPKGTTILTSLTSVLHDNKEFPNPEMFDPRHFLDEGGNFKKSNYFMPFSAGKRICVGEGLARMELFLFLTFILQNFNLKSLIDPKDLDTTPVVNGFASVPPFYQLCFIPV
Sequence of 11-beta-hydroxysteroid dehydrogenase type 2 (P80365 whole entry): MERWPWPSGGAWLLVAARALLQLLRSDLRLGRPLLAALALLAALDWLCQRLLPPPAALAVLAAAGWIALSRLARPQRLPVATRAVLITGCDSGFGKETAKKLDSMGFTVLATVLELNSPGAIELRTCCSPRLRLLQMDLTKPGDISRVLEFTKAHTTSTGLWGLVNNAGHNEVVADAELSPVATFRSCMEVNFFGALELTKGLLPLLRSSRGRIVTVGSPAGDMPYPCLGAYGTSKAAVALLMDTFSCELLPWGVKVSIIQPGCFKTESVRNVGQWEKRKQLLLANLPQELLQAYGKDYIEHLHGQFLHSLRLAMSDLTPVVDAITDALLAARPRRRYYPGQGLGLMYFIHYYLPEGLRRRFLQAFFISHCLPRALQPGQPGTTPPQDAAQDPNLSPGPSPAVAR
Sequence of 11-beta-hydroxysteroid dehydrogenase 1 (Mus musculus, UniProt P50172) (P50172 whole entry): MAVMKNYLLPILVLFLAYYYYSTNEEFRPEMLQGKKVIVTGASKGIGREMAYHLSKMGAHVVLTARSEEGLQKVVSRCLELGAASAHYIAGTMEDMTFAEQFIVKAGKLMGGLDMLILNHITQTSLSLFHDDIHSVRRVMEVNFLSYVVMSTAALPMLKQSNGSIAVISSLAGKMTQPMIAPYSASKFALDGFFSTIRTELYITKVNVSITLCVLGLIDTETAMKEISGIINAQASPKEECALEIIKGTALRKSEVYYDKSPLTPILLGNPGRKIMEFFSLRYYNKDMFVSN
Sequence of 11-beta-hydroxysteroid dehydrogenase type 1 (Q5XX84 whole entry): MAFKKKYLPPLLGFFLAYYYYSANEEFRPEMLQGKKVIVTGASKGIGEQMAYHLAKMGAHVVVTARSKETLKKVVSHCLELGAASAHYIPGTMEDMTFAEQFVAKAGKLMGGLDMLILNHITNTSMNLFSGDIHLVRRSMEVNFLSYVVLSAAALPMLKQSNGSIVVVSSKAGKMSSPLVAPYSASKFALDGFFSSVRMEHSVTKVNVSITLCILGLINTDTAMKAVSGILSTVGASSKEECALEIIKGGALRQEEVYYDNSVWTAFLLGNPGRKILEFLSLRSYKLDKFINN
Sequence of 11-beta-hydroxysteroid dehydrogenase 1 (Rattus norvegicus, UniProt P16232) (P16232 whole entry): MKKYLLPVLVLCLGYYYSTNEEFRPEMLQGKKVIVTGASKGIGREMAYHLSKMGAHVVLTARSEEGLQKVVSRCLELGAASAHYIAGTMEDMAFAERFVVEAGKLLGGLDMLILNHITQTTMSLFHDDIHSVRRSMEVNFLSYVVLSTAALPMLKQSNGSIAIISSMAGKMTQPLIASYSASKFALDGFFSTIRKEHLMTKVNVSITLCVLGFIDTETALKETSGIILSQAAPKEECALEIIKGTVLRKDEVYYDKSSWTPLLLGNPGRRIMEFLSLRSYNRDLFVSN
Sequence of 17-beta-hydroxysteroid dehydrogenase type 1 (P14061 whole entry): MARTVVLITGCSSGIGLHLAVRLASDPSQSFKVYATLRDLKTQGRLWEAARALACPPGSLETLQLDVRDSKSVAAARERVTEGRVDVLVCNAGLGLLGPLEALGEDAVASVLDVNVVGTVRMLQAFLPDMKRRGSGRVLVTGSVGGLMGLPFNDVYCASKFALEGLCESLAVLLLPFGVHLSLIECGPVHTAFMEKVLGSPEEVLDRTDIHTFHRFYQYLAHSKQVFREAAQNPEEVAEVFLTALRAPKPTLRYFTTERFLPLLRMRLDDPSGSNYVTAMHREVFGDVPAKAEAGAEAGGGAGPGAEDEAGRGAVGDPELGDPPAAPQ
Sequence of 17-beta-hydroxysteroid dehydrogenase type 3 (P37058 whole entry): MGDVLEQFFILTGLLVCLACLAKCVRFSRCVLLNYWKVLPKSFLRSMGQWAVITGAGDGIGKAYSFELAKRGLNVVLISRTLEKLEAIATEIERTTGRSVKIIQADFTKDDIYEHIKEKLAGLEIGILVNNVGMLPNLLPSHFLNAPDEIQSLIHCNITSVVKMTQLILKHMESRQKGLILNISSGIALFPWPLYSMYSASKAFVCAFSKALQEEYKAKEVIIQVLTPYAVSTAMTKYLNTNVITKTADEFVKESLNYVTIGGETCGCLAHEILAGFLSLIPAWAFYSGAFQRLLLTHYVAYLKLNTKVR
Sequence of CYP1A2 (P05177 whole entry): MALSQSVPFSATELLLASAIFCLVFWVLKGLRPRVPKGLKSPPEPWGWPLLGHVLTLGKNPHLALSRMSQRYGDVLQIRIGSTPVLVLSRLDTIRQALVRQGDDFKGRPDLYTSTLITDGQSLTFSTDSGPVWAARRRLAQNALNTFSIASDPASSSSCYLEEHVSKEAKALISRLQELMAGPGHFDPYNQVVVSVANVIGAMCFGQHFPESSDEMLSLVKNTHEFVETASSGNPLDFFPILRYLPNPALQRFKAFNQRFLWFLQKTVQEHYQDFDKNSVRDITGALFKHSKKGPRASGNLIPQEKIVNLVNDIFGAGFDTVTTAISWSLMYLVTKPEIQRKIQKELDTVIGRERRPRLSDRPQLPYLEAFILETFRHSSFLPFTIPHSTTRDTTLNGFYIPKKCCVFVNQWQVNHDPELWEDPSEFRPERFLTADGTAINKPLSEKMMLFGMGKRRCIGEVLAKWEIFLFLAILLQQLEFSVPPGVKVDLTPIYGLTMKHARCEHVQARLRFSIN
Sequence of CYP3A4 (P08684 whole entry): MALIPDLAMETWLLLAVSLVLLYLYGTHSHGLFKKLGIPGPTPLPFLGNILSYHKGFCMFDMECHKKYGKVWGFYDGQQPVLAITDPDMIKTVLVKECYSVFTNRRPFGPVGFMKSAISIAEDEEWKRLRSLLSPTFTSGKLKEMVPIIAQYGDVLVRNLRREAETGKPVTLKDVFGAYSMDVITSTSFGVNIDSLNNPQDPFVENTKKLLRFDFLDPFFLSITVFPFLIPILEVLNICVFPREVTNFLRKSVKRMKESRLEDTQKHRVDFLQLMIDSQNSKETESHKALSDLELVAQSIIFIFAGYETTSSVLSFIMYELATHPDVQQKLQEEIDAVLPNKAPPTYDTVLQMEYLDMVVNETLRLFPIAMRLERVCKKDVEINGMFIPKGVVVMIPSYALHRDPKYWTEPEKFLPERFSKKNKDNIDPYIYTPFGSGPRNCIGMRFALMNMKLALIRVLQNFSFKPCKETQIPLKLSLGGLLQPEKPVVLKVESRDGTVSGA

logD at 0.5 h [1]: 2.2
fraction unbound [2]: 0.017
solubility at 24 h [3]: 144 µM (≈ 60.4 µg/mL)
hepatocyte CLint [4]: < 2 µL/min/1e6 cells
bioavailability [5]: > 100%
fraction unbound [6]: 0.029
fraction unbound [7]: 0.023
fraction unbound [8]: 0.008
Papp A→B at 10 µM [9]: 29 ×10⁻⁶ cm/s
Papp B→A at 10 µM [10]: 22 ×10⁻⁶ cm/s
inhibition at 10 µM [11]: < 25%
inhibition at 10 µM [12]: < 25%
inhibition at 10 µM [13]: < 25%
inhibition at 10 µM [14]: < 25%
inhibition at 10 µM [15]: < 25%
clearance [16]: 16 mL/min/kg
Vd [17]: 4.2 L/kg
half-life [18]: 4.2 h
half-life [19]: 3.2 h
bioavailability [20]: > 100%
clearance [21]: 9 mL/min/kg
Vd [22]: 2.6 L/kg
half-life [23]: 4.4 h
half-life [24]: 4.7 h
bioavailability [25]: > 100%
clearance [26]: 7 mL/min/kg
Vd [27]: 0.9 L/kg
half-life [28]: 6.2 h
half-life [29]: 4.9 h
bioavailability [30]: 60%
Stability [31]: 66%
Drug uptake [32]: < 25 pmol
Drug uptake [33]: Not Active
Drug uptake [34]: Not Active
pIC50 [35]: < 4.52
pIC50 [36]: < 4.52
pIC50 [37]: < 4.52
Activity [38]: inactive
Activity [39]: inactive
Activity [44]: Active
Activity [45]: Active
pIC50 [46]: 6.12
pIC50 [47]: 5.39
pIC50 [48]: 5.42
pIC50 [49]: 7.54
Stability [53]: 34%
Stability [54]: 93%
clearance [55]: 9 mL/min/kg
SMILES: CCCSc1nc(N2CCC[C@@H](CC(=O)O)C2)ccc1C(=O)NC1CCCCC1 [AZD-4017]
Activity [40]: Non-toxic
Activity [41]: Non-toxic
Activity [42]: Non-toxic
Activity [43]: Non-toxic
inhibition in vivo at 50 mg/kg [50]: 50%
Imax [51]: 70%
inhibition [52]: Dose-dependent effect
